Measured values published in patent US20070010444A1, “Novel mediator of neurotransmitter and psychostimulant responses” (The Regents of the University of California, priority 2005, published 2007).
“Also recorded” adds a separate entry of the source. Counter-ions that a name gives are not always drawn.

Experiments:
C. elegans [1] = assay: Acute amphetamine assay of pharyngeal pumping (90 minutes in M9 buffer); format: in vivo, Caenorhabditis elegans
C. elegans [2] = assay: Growth of worms on agar plates containing amphetamine
C. elegans [3] = assay: Chronic effect of amphetamine on pharyngeal pumping (plates, 20 hours); format: in vivo, Caenorhabditis elegans; conditions: 5 mM amphetamine plates
C. elegans [4] = assay: Muscimol effect on rate of pharyngeal contractions (plates with food); format: in vivo, Caenorhabditis elegans; conditions: N2 and eg814, plates with 0, 0.1 and 1 mM muscimol, 20 and 45 minutes

C[C@H](N)Cc1ccccc1 [amphetamine, d-amphetamine sulfate]
pharyngeal contractions, acute effect (C. elegans [1]; N2, 90 minutes in solution of 0, 5 and 10 mM amph): inhibits pharyngeal contractions of N2 worms in a dose-dependent manner
pharyngeal contractions, acute effect (C. elegans [1]; eg814 mutant, 90 minutes in solution of 0, 5 and 10 mM amph): exhibits resistance to acute amphetamine
gravid adults (C. elegans [2]; eg814 mutant, 5 mM amph, plated at first larval stage, after 5 days): ~100%
growth rates (C. elegans [2]; eg814 mutant, 5 mM amphetamine): unaffected growth rates
growth of worms (C. elegans [2]; long-term exposure, millimolar levels of amphetamine in agar plates): dramatically suppressed the growth of worms
animals reaching adulthood (C. elegans [2]; wild-type (N2), 5 mM amphetamine plates, after 5 days): no wild-type animals are adults
rate of pharyngeal contractions (C. elegans [3]; N2, first day adults): greatly reduced rate of pharyngeal contractions
rate of pharyngeal contractions (pumping) (C. elegans [3]; eg814 mutant, first day adults): sustained resistance to the inhibition of pumping

NCc1cc(=O)[nH]o1 [muscimol]
inhibition of pumping (C. elegans [4]): exhibited similar inhibition of pumping after both 20 and 45 minutes; also recorded: inhibited pumping in both N2 and eg814 worms with a very similar dose response
